In PubChem BioAssay AID1361 (SRMLSC, 2008):
The source made the active and inactive calls. No rule for the calls is given here.

Assay: mitochondrial fusion inhibitors, confirmation, cell-based, chemical genetic, wild-type and mutant (AID 1361)
Conditions: Cell-based mitochondrial fusion phenotype, imaging
[1] = mutant cells, measured here: mutant cell line IC50

| Structure (SMILES) | IC50 (WT cells) | IC50 [1] [µM] |
| --- | --- | --- |
| NC(=O)NCCC1=CCCCC1 | > 25 µM (inactive) | > 25 |
| c1ccc2c(c1)[nH]c1c(N3CCCC3)ncnc12 | > 25 µM (inactive) | > 25 |
| CCCNC(=O)c1ccccc1NC(=O)CSCc1ccc(OC)cc1 | > 25 µM (inactive) | > 25 |
| COCCN(C(=S)Nc1ccc(C(C)C)cc1)C(C)c1cccs1 (stereo unspecified) | > 25 µM (inactive) | > 25 |
| O=C(Nc1ccccc1)Nc1cc(OCC(F)(F)F)cc(OCC(F)(F)F)c1 | 16.3 µM | > 25 |
| COc1ccc(NC(=O)N2c3ccccc3CC2C)cc1OC (stereo unspecified) | > 25 µM (inactive) | > 25 |
| COc1c(F)c(F)c(C(=O)O)c(Nc2ccccc2C)c1F | > 25 µM (inactive) | > 25 |
| O=C(Nc1nnc(C2CC2)o1)c1ccc(S(=O)(=O)N2CCCc3ccccc32)cc1 | 13.5 µM | 20.8 |
| O=[N+]([O-])c1ccccc1S(=O)(=O)NCCC1=CCCCC1 | > 25 µM (inactive) | > 25 |
| CCOc1ccc2c(c1)C(C)=CC(C)(C)N2S(=O)(=O)c1ccc(C)cc1 | 13.7 µM | 23.2 |
| CCCCCOc1ccc2oc(=O)c3c(c2c1)CCCN3C(=O)CN1CCCC(C(=O)OCC)C1 (stereo unspecified) | > 25 µM (inactive) | > 25 |
| CCCCSc1nnc(-c2ccccc2)c2ccccc12 | 24.9 µM (inactive) | > 25 |
| COc1ccc(-c2nc3n(c(=O)c2C#N)CCCS3)cc1 | > 25 µM (inactive) | > 25 |
| Cc1cc(C(=O)Nn2c(C3CCCCC3)nc3ccccc3c2=O)ccc1[N+](=O)[O-] | 16.7 µM | > 25 |
| CCC(C)(C)c1ccc2c(c1)C(=O)c1ccccc1C2=O | 18.6 µM | > 25 |
| CCOC(=O)C1=C(CC)Nc2ccccc2N/C1=N\S(=O)(=O)c1ccc2ccccc2c1 | 11 µM | > 25 |
| COc1ccc(C(=O)N(Cc2nc(-c3ccc(C)cc3)no2)C2CCCCC2)cc1OC | 20.2 µM | > 25 |
| COc1ccc(-c2cn[nH]c2-c2ccc(OCc3ccc([N+](=O)[O-])cc3)cc2O)cc1 | 10 µM | > 25 |
| CC(NC(=O)COc1ccccc1-c1ccccc1)c1ccccc1 (stereo unspecified) | 15 µM | > 25 |
| COc1ccc(OC)c(S(=O)(=O)Nc2ccc(Oc3ccccc3)cc2)c1 | > 25 µM (inactive) | > 25 |
| CCCCc1nc(NCCN)c(C#N)c2c1CSC(C)(C)C2 | 21.7 µM | > 25 |

| Structure (SMILES) | IC50 (WT cells) | IC50 [1] [µM] |
| --- | --- | --- |
| CC(C)Cc1nc(N2CCN(C(=O)c3ccccc3)CC2)c(C#N)c2c1CCC2 | 16.3 µM | > 25 |
| CCN(CC)CCNC(=O)Cn1nc(Cc2ccccc2)c2ccccc2c1=O | > 25 µM (inactive) | > 25 |
| CN(C)c1ccc(O)c2c1CC1CC3[C@@H](N(C)C)C(=O)C(C(N)=O)=C(O)[C@]3(O)C(=O)C1=C2O (stereo partly specified) | > 25 µM (inactive) | > 25 |
| CCCC[C@@H]1C[C@H]1[C@@H](NC(=O)c1cccs1)c1ccc(Cl)cc1 | 9.76 µM | > 25 |
| CC(C)(C)n1nnnc1C(c1ccc(Cl)cc1)N(Cc1cccnc1)Cc1ccco1 (stereo unspecified) | > 25 µM (inactive) | > 25 |
| FC(F)(F)c1ccc(Oc2ccc3ccccc3c2Br)nc1 | > 25 µM (inactive) | > 12.5 |
| O=C(C1=C[C@H](c2csc3ccccc23)C[C@H](OCc2ccc(CO)cc2)O1)N1CCN(Cc2ccccc2)CC1 | 4.03 µM | 10.5 |
| Cc1ccc(C)c(C(=O)COC(=O)c2cc([N+](=O)[O-])ccc2NCCO)c1 | 25 µM (inactive) | > 12.5 |
| O=C(CCN1C(=O)/C(=C/c2cccs2)SC1=S)NC1=NCCS1 | 12.5 µM | > 25 |
| COc1ccc(/C=C/C(=O)c2ccc(O)cc2)cc1COc1ccc(F)cc1 | 11.9 µM | > 25 |
| Cc1ccc(NC(=O)CC2S/C(=N/N=C3\CCCc4ccccc43)NC2=O)cc1 (stereo unspecified) | 22.2 µM | > 25 |
| CCC(C(=O)OCC(=O)Nc1ccccc1-c1ccccc1)c1ccccc1 (stereo unspecified) | 17.3 µM | > 25 |
| CCOc1ccccc1-n1c(CN2CCN(C(=O)c3ccco3)CC2)nc2ccccc2c1=O | > 25 µM (inactive) | > 25 |
| CCCCOP(=O)(c1ccc(N(C)C)cc1)C(Nc1ccccc1)c1ccccc1 (stereo unspecified) | 14.1 µM | > 25 |
| CC(C(=O)Nc1ccc(Cl)cc1Cl)N1CC=C(c2ccccc2)CC1 (stereo unspecified) | 8.63 µM | 13.3 |
| COc1cc(/C=N/N=C(/C(=O)c2ccccc2)c2ccccc2)cc(OC)c1O | 16.5 µM | > 25 |
| Cc1ccc(C(C(=O)NC2CCCCC2)N(Cc2ccco2)C(=O)Cc2c[nH]c3ccccc23)o1 (stereo unspecified) | 21.2 µM | > 25 |
| FC(F)(F)c1cc(-c2ccco2)nc(NCc2ccc(Cl)cc2)n1 | 14.8 µM | > 25 |
| O=C1NC(Nc2nc3ccccc3s2)(C(F)(F)F)C(=O)N1C1CCCCC1 (stereo unspecified) | 20 µM | > 25 |
| COc1cc(SC)ccc1C(=O)NCC1CCCO1 (stereo unspecified) | > 25 µM (inactive) | > 25 |
| CCOC(=O)c1c(-c2ccc(OC)cc2)csc1/N=C/C1=C(O)CCCC1=O | > 25 µM (inactive) | > 25 |

| Structure (SMILES) | IC50 (WT cells) | IC50 [1] [µM] |
| --- | --- | --- |
| COCCn1c(=S)[nH]c2cc(C(=O)N3CCc4ccccc43)ccc2c1=O | > 25 µM (inactive) | > 25 |
| FC(F)(F)c1cc(-c2ccccc2)nc(NCc2cccs2)n1 | 18.8 µM | > 25 |
| CC(=O)Oc1ccccc1N(C(C)=O)S(=O)(=O)c1ccc2ccccc2c1 | > 25 µM (inactive) | > 25 |
| COC(=O)c1ccc(/C=C(\C#N)c2nc3ccccc3s2)cc1 | > 25 µM (inactive) | > 25 |
| Cc1nc2ccccc2c2oc(C(=O)Nc3ccc(C(C)C)cc3)cc12 | > 25 µM (inactive) | > 25 |
| COc1ccccc1NC(=O)COC(=O)c1ccc([N+](=O)[O-])s1 | 6.09 µM | 19.4 |
| CC1CCCN(C(=O)N2c3ccccc3Sc3ccccc32)C1 (stereo unspecified) | 18.8 µM | > 25 |
| COc1ccc(-c2cc3nc(-c4ccccc4)cc(N4CCC(O)CC4)n3n2)cc1 | > 25 µM (inactive) | > 25 |
| COc1ccc(C2c3c(ncn(Cc4ccco4)c3=N)Oc3ccc4ccccc4c32)cc1 (stereo unspecified) | 13.4 µM | > 25 |
| N=c1c2c(n(Cc3ccc(F)cc3)c3c1CCC3)CCC2 | 11.2 µM | > 25 |
| CCC(=Nc1ccc(OC)cc1OC)c1c(O)n(C2CCCCC2)c(=O)[nH]c1=O | 15.9 µM | > 25 |
| NC(=O)c1ccc(NC(=O)COC(=O)c2c3c(nc4ccccc24)/C(=C\c2ccc4c(c2)OCO4)CCC3)cc1 | 8.77 µM | > 25 |
| COc1cc(C(=O)OC2CC3CCC2(C)C3(C)C)ccc1OC(C)=O (stereo unspecified) | 20 µM | > 25 |
| CC(C)C12CN3CCN(CC(C3)C1O)C2 (stereo unspecified) | > 25 µM (inactive) | > 25 |
| O=C(COC(=O)CC(c1ccccc1)c1ccccc1)NCc1ccc(Cl)cc1 | 14.7 µM | > 25 |
| O=C(c1ccccc1)c1cc(Cl)ccc1N1C(=O)C=CC1=O | > 25 µM (inactive) | > 25 |
| O=C(C1=C[C@H](c2csc3ccccc23)C[C@H](OCc2ccc(CO)cc2)O1)N1CCN(Cc2ccc3c(c2)OCO3)CC1 | 2.16 µM | 10.5 |
| c1ccc(-c2cn3c(n2)CCc2ccc4cccnc4c2-3)cc1 | 23.7 µM (inactive) | 21.3 |
| Cc1onc(-c2ccccc2Cl)c1C(=O)Nc1nnc(-c2ccc(Br)cc2)s1 | 8.39 µM | > 25 |
| Cc1ccc(NC(=S)N(CCCN2CCCC2)Cc2cccn2Cc2ccc(Cl)cc2)cc1 | 14.4 µM | > 25 |
| CNc1oc(C)nc1S(=O)(=O)c1ccc(C)cc1 | > 25 µM (inactive) | > 25 |

| Structure (SMILES) | IC50 (WT cells) | IC50 [1] [µM] |
| --- | --- | --- |
| O=C(CSCC(=O)OCn1nnc2ccccc2c1=O)Nc1ccc(Cl)cc1 | > 25 µM (inactive) | > 25 |
| O=C(Nc1ccc(Cl)cc1)N1CCN(c2ccc3nnc(-c4ccc(F)cc4)n3n2)CC1 | > 25 µM (inactive) | > 25 |
| O=C(c1ccccn1)N1N=C2/C(=C/c3ccc(F)cc3)CCCC2C1c1ccc(F)cc1 (stereo unspecified) | 16.1 µM | > 25 |
| COC(=O)c1ccc(CSc2nc3ccccc3c(=O)n2CC(C)C)o1 | > 25 µM (inactive) | > 25 |
| Cc1nc(NC2=NCN(C3CCCCC3C)CN2)nc2ccccc12 (stereo unspecified) | > 25 µM (inactive) | > 25 |
| CCOc1cc(C2Nc3ccccc3C(=O)N2c2ccccc2OC)ccc1O (stereo unspecified) | > 25 µM (inactive) | > 25 |
| O=C(c1ccccc1)c1nnc(-c2ccncc2)o1 | > 25 µM (inactive) | > 25 |
| COc1cccc(C2=CC(c3ccccc3)n3nnnc3N2)c1 (stereo unspecified) | > 25 µM (inactive) | > 25 |
| COCCCn1c(SCC(=O)NC(C)(C)C)nnc1-c1ccccc1 | > 25 µM (inactive) | > 25 |
| O=C(COc1ccccc1-c1ccccc1)NCc1cccc(Cl)c1 | 15 µM | > 25 |
| CN1/C(=C\C(=O)Nc2ccc(Br)cc2)C(C)(C)c2ccccc21 | 5.66 µM | 16.7 |
| CCCCCCCOC(=O)c1nc(Cl)c(Cl)c(N)c1Cl | 18.9 µM | > 25 |
| COC(=O)Cn1ccc(N(C)C)c(C#N)c1=O | > 25 µM (inactive) | > 25 |
| Fc1ccc(N2CCN(c3nc(CN4CCOCC4)nc4scc(-c5ccccc5)c34)CC2)cc1 | 19.6 µM | 24 |
| CCOC(=O)c1c(-n2c(C)cc(C=C3C(=O)NC(=S)NC3=O)c2C)sc2c1CCCC2 | 7.21 µM | > 25 |
| C(=N\Nc1nc(Nc2ccccc2)nc(Nc2ccccc2)n1)/c1cccnc1 | 20.9 µM | > 25 |
| O=C1c2ccccc2OC2(C=Cc3ccccc3O2)N1Cc1ccccc1 (stereo unspecified) | 5.8 µM | > 25 |
| CCOc1ccccc1NC(=O)NC(=O)N(C)S(=O)(=O)c1ccc(C)cc1 | > 25 µM (inactive) | > 25 |
| CCOC(=O)C1CCc2nc3ccccc3c(=O)n21 (stereo unspecified) | > 25 µM (inactive) | > 25 |
| COc1cc(OC)c2c(c1)C(=O)c1cc(OC)cc(OC)c1C2=O | > 25 µM (inactive) | > 25 |
